Values quoted from earlier work, collected in US8076449B2, “Therapeutic agents of colivelin for neurodegenerative diseases” (Tomohiro Chiba, priority 2004, dated 2011).

Legend:
[1] = system: F11 cells transformed with M146L-PS1; conditions: as already reported; cited from earlier work
[2] = system: primary cultured cortical neurons treated with Aβ (1-43); conditions: Aβ (1-43) neurotoxicity; stated as known fact; cited from earlier work

## HNG: Humanin (HN) derivative whose serine residue at the position 14 is replaced by glycine (MAPRGFSCLLLLTGEIDLPVKRRA; Humanin; UniProt Q8IVG9 1-24, looked up, variant S14G)
[1]
  concentration completely suppressing cell death caused by M146L-PS1: 100 nM
[2]
  concentration exerting complete protective action: 10 nM
